# Source: publication PMC7932537, “Quantitative profiling of protease specificity” (PLoS Computational Biology, 2021)
# System: MMP-2
# Assay: Substrate phage display with NGS: relative probability (RP) of P3-P1' tetramer clusters
# Assay type: biochemical, human
# Details: MMP2 - no binning; average relative probability of the P3-P1' tetramer; redundant tetramers have been averaged out
row,Substance,avg_RP
1,LMRL,0.1149
2,IQTM,7.1082
3,YRSL,1.5061
4,PFHL,23.4724
5,PFRL,16.3818
6,VFGL,12.5523
7,GASL,9.5377
8,FRNL,9.8211
9,GFSL,0.0975
10,GYSL,0.0471
11,YRHM,0.3212
12,VGML,28.5913
13,GAAL,15.7207
14,TYAL,5.848
15,LGML,29.0922
16,GLEL,0

row,Substance,avg_RP
1,SYAL,4.7967
2,LWTL,0.0853
3,SMRL,0
4,IGNF,24.8743
5,WHNM,0
6,GFQL,0.0467
7,MMQL,0.816
8,LDWM,7.0331
9,VWWQ,0.2844
10,PWLQ,0.2574
11,MRHL,14.413
12,SGFL,6.5712
13,VNLL,0.5682
14,VSEL,24.0996
15,VLNM,19.025
16,WYGM,0.0531

# Same assay, conditions: MMP2 - no binning; average relative probability of the tetramer; redundant tetramers averaged out
row,Substance,avg_RP
1,QLSL,0.4979
2,LAAI,28.8382
3,LGYL,24.8925
4,PWSV,0.3793
5,PWAW,10.3227
6,PESL,26.0767
7,PSLY,18.1013
8,PSWV,21.5104
9,VLNL,18.9065
10,FRHL,3.942
11,ANAL,20.3526
12,PRWL,34.1809
13,PAAL [P3-P1' tetramer cluster],35.8015
14,PGRL,29.6024
15,IALL,16.3586
16,PSRM,27.1397
17,LRAM,29.407
18,IATL,24.2778
19,VFWY,6.3003
20,PYGM,27.2726
21,WAHI,0.0575
22,LRML,9.0498
23,PAPW,31.7353
24,PRGS,16.3331
25,MAAL,32.6562
26,SHGL,0.2009
27,AIPL,24.8904

row,Substance,avg_RP
1,MNSL,18.7113
2,GRAM,2.5449
3,LAAW,24.7038
4,HFHL,0.0941
5,VYNL,19.1818
6,SNWL,9.68
7,PLHM,30.0095
8,PQWM,29.0885
9,LLAM,10.8556
10,VRGV,2.6159
11,PYSL,30.7259
12,YASL,26.9916
13,VQHL,22.9738
14,IAAM,28.6184
15,VRNV,5.0406
16,VRQL,16.7722
17,PYHI,15.3574
18,IRYL,17.8741
19,PMWS,5.1021
20,PWSL,28.5684
21,LMGL,28.5499
22,VRHL,25.4239
23,PIEL,20.545
24,ARPL,27.8706
25,VMGI,12.4242
26,PQGM,29.6059
27,IRFL,12.1004

# Same assay, conditions: tetramer clusters unique to the MMP-2 selectome, MMP-2 RP
row,Substance,relative_probability
1,MGWI [P3-P1' tetramer cluster],29.72
2,LGNM [P3-P1' tetramer cluster],29.28
3,VANW [P3-P1' tetramer cluster],29.92
4,LANI [P3-P1' tetramer cluster],29.81

# Same assay, conditions: tetramer probability in MMP2 set / naive library; 200 nM protease, 2 h, 37°C
row,Substance,relative probability (RP)
1,PSNL [P3-P1' tetramer cluster],36.5166
2,PAAL [P3-P1' tetramer cluster],35.8015

# Same assay, conditions: tetramer projected onto MMP-2 cleavage sites determined by Prudova et al. (2010)
row,Substance,relative probability (RP)
1,PAAL [P3-P1' tetramer cluster],35.8
2,PRNL [P3-P1' tetramer cluster],35.13
